Each structure is given as a SMILES string. Calls of active or inactive are those of the source. The rule behind the calls is not given here.

In this data set the test system is rodent carcinogenicity bioassays, tumor incidence. As to the kind of experiment: CCRIS carcinogenicity studies. An outline of the steps:
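NCI-built, expert-reviewed records of carcinogenicity and related test outcomes (mutagenicity, tumor promotion/inhibition) compiled from published and report sources, historical span 1985-2011, not updated.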

In the case of `N[C@@H](Cc1ccc(N(CCCl)CCCl)cc1)C(=O)O`, the carcinogen call reads like this: (Species: HUMAN, Route: ORAL, Tumor Site: Type of Lesion: HEMATOPOIETIC SYSTEM (LEUKEMIA), LYMPHATIC SYSTEM: LYMPHOMA) “active; positive”; (Species: MOUSE, Strain/Sex: STRAIN-A/MALE,FEMALE, Route: INTRAPERITONEAL, Dose: 0.27, 1.07, 4.27, 17.1 MG/KG IN 12 DOSES OVER 4 WK, Dose: 0.27, 1.07, 4.27, 17.1 MG/KG IN 12 DOSES OVER 4 WK, Tumor Site: Type of Lesion: LUNG: ADENOMA) “active; positive”; (Species: MOUSE, Strain/Sex: SWISS/FEMALE, Route: INTRAPERITONEAL, Dose: 0.75, 1.5 MG/KG 3/WK FOR 6 MO, Tumor Site: Type of Lesion: LUNG: ADENOMA) “active; positive”; (Species: MOUSE, Strain/Sex: SWISS/MALE, Route: INTRAPERITONEAL, Dose: 0.75, 1.5 MG/KG 3/WK FOR 6 MO, Tumor Site: Type of Lesion: LUNG: ADENOMA, LYMPHATIC SYSTEM: LYMPHOSARCOMA) “active; positive”; (Species: RAT, Strain/Sex: STRAIN-CD/MALE,FEMALE, Route: INTRAPERITONEAL, Dose: 0.9, 1.8 MG/KG 3/WK FOR 6 MO, Tumor Site: Type of Lesion: PERITONEAL CAVITY: SARCOMA) “active; positive”.
As to `O=[N+]([O-])c1ccc(N=Nc2c(O)ccc3ccccc23)c([N+](=O)[O-])c1`, the carcinogen call is “inactive; negative” (Species: MOUSE, Strain/Sex: ICR/FEMALE, Route: DERMAL, Dose: 0, 1 MG IN 0.1 ML DISTILLED WATER 2/WK FOR A MEAN TOTAL DOSE OF 143.7 MG (STUDY DURATION: 18 MO)) and “inactive; negative” (Species: MOUSE, Strain/Sex: ICR/MALE, Route: DERMAL, Dose: 0, 1 MG IN 0.1 ML DISTILLED WATER 2/WK FOR A MEAN TOTAL DOSE OF 143.7 MG (STUDY DURATION: 18 MO)).
As for `CC(C)=CCl`, the carcinogen call is “active; positive” (Species: MOUSE, Strain/Sex: B6C3F1/FEMALE, Route: GAVAGE, Dose: 0, 100, 200 MG/KG IN CORN OIL 5 D/WK FOR 102 WK, Dose: 0, 100, 200 MG/KG IN CORN OIL 5 D/WK FOR 102 WK, Tumor Site: Type of Lesion: FORESTOMACH: SQUAMOUS CELL CARCINOMA, SQUAMOUS CELL PAPILLOMA); “active; positive” (Species: MOUSE, Strain/Sex: B6C3F1/MALE, Route: GAVAGE, Dose: 0, 100, 200 MG/KG IN CORN OIL 5 D/WK FOR 102 WK, Dose: 0, 100, 200 MG/KG IN CORN OIL 5 D/WK FOR 102 WK, Tumor Site: Type of Lesion: FORESTOMACH: SQUAMOUS CELL CARCINOMA, SQUAMOUS CELL PAPILLOMA, PREPUTIAL GLAND: SQUAMOUS CELL CARCINOMA); “active; positive” (Species: RAT, Strain/Sex: F344/FEMALE, Route: GAVAGE, Dose: 0, 100, 200 MG/KG IN CORN OIL 5 D/WK FOR 103 WK, Dose: 0, 100, 200 MG/KG IN CORN OIL 5 D/WK FOR 103 WK, Tumor Site: Type of Lesion: NASAL CAVITY: CARCINOMA (NOS), CARCINOMA (NOS) OR SQUAMOUS CELL CARCINOMA, ADENOCARCINOMA, ESOPHAGUS: SQUAMOUS CELL CARC); “active; positive” (Species: RAT, Strain/Sex: F344/MALE, Route: GAVAGE, Dose: 0, 100, 200 MG/KG IN CORN OIL 5 D/WK FOR 103 WK, Dose: 0, 100, 200 MG/KG IN CORN OIL 5 D/WK FOR 103 WK, Tumor Site: Type of Lesion: NASAL CAVITY: CARCINOMA (NOS), SQUAMOUS CELL CARCINOMA, ADENOCARCINOMA, ESOPHAGUS: SQUAMOUS CELL PAPILLOMA, SQUAMOUS CEL).
Regarding `C=CCOCC1CO1` (stereo not given), the carcinogen call reads like this: (Species: MOUSE, Strain/Sex: B6C3F1/FEMALE, Route: INHALATION, Dose: 0, 5, 10 PPM 6 HR/D 5 D/WK FOR 102 WK (STUDY DURATION: 105 WK), Dose: 0, 5, 10 PPM 6 HR/D 5 D/WK FOR 102 WK (STUDY DURATION: 105 WK), Tumor Site: Type of Lesion: NOSE (RESPIRATORY EPITHELIUM): ADENOMA) “equivocal”; (Species: MOUSE, Strain/Sex: B6C3F1/MALE, Route: INHALATION, Dose: 0, 5, 10 PPM 6 HR/D 5 D/WK FOR 102 WK (STUDY DURATION: 105 WK), Dose: 0, 5, 10 PPM 6 HR/D 5 D/WK FOR 102 WK (STUDY DURATION: 105 WK), Tumor Site: Type of Lesion: NOSE (RESPIRATORY EPITHELIUM): ADENOMA) “active; positive”; (Species: RAT, Strain/Sex: OSBORNE-MENDEL/FEMALE, Route: INHALATION, Dose: 0, 5, 10 PPM 6 HR/D 5 D/WK FOR 103 WK (STUDY DURATION: 106 WK), Dose: 0, 5, 10 PPM 6 HR/D 5 D/WK FOR 103 WK (STUDY DURATION: 106 WK)) “inactive; negative”; (Species: RAT, Strain/Sex: OSBORNE-MENDEL/MALE, Route: INHALATION, Dose: 0, 5, 10 PPM 6 HR/D 5 D/WK FOR 103 WK (STUDY DURATION: 106 WK), Dose: 0, 5, 10 PPM 6 HR/D 5 D/WK FOR 103 WK (STUDY DURATION: 106 WK), Tumor Site: Type of Lesion: NOSE (RESPIRATORY OR OLFACTORY EPITHELIUM): PAPILLARY ADENOMA, SQUAMOUS CELL CARCINOMA, POORLY DIFFERENTIATED ADENOCARCI) “equivocal”.
Regarding `CN(C)[C@@H]1C(=O)C(C(N)=O)=C(O)[C@@]2(O)C(=O)C3=C(O)c4c(O)cccc4[C@@](C)(O)[C@H]3C[C@@H]12`, the carcinogen call reads like this: (Species: MOUSE, Strain/Sex: B6C3F1/FEMALE, Route: GAVAGE, Dose: 0, 12500, 25000 PPM IN FEED FOR 103 WK (STUDY DURATION: 104 WK), Dose: 0, 12500, 25000 PPM IN FEED FOR 103 WK (STUDY DURATION: 104 WK)) “inactive; negative”; (Species: MOUSE, Strain/Sex: B6C3F1/FEMALE, Route: ORAL, Dose: 0, 12500, 25000 PPM IN DIET FOR 103 WK (STUDY DURATION: 103 WK), Dose: 0, 12500, 25000 PPM IN DIET FOR 103 WK (STUDY DURATION: 103 WK)) “inactive; negative”; (Species: MOUSE, Strain/Sex: B6C3F1/MALE, Route: ORAL, Dose: 0, 12500, 25000 PPM IN DIET FOR 103 WK (STUDY DURATION: 103 WK), Dose: 0, 12500, 25000 PPM IN DIET FOR 103 WK (STUDY DURATION: 103 WK)) “inactive; negative”; (Species: MOUSE, Strain/Sex: B6C3F1/MALE, Route: ORAL, Dose: 0, 12500, 25000 PPM IN FEED FOR 103 WK (STUDY DURATION: 104 WK), Dose: 0, 12500, 25000 PPM IN FEED FOR 103 WK (STUDY DURATION: 104 WK)) “inactive; negative”; (Species: RAT, Strain/Sex: F344/FEMALE, Route: ORAL, Dose: 0, 12500, 25000 PPM IN DIET FOR 103 WK (STUDY DURATION: 103 WK), Dose: 0, 12500, 25000 PPM IN DIET FOR 103 WK (STUDY DURATION: 103 WK)) “inactive; negative”; (Species: RAT, Strain/Sex: F344/FEMALE, Route: ORAL, Dose: 0, 12500, 25000 PPM IN FEED FOR 103 WK (STUDY DURATION: 104 WK), Dose: 0, 12500, 25000 PPM IN FEED FOR 103 WK (STUDY DURATION: 104 WK)) “inactive; negative”. Also, the carcinogen call (Species: RAT, Strain/Sex: F344/MALE, Route: ORAL, Dose: 0, 12500, 25000 PPM IN DIET FOR 103 WK (STUDY DURATION: 103 WK), Dose: 0, 12500, 25000 PPM IN DIET FOR 103 WK (STUDY DURATION: 103 WK)) is “inactive; negative” and the carcinogen call (Species: RAT, Strain/Sex: F344/MALE, Route: ORAL, Dose: 0, 12500, 25000 PPM IN FEED FOR 103 WK (STUDY DURATION: 104 WK), Dose: 0, 12500, 25000 PPM IN FEED FOR 103 WK (STUDY DURATION: 104 WK)) was “inactive; negative”.
Consider `Cc1c(C)c2c3c(ccc2c2ccccc12)[C@@H](O)[C@H](O)[C@@H]1O[C@H]31`, for which the carcinogen call is “active; positive” (Species: MOUSE, Strain/Sex: ICR/FEMALE, Route: INTRAPERITONEAL, Dose: 0, 8 NMOL IN 5 µL DMSO TO PUPS ON D 1/OF LIFE THEN 16 NMOL IN 10 µL ON D 8 AND 3 NMOL IN 20 µL D 15 (STUDY DURATION: 35, Tumor Site: Type of Lesion: LUNG: TUMOR) and “active; positive” (Species: MOUSE, Strain/Sex: ICR/MALE, Route: INTRAPERITONEAL, Dose: 0, 8 NMOL IN 5 µL DMSO TO PUPS ON D 1/OF LIFE THEN 16 NMOL IN 10 µL ON D 8 AND 3 NMOL IN 20 µL ON D 15 (STUDY DURATION:, Tumor Site: Type of Lesion: LUNG: TUMOR, LIVER: TUMOR).

(Values after PubChem BioAssay AID1259411 (Chemical Carcinogenesis Research Information System (CCRIS), 2018).)
